{"source": "patent US20250090507A1", "about": "“Methods of Treating Cancer With a B-RAF Inhibitor” (MapKure, LLC, priority 2022, published 2025)", "key": {"Permeability": {"experiment": "Permeability", "assay_type": "in vitro ADME"}, "[1]": {"system": "RAF family of serine/threonine kinases", "experiment": "Preclinical RAF kinase inhibition", "assay_type": "biochemical"}, "[2]": {"experiment": "Solubility of the solid form", "assay_type": "physicochemical", "details": "Form I"}, "[3]": {"system": "patients with tumors harboring B-RAF or K-RAS/N-RAS mutations", "experiment": "Phase 1 study: tumor response by investigators using RECIST v1.1", "assay_type": "in vivo, human", "method": "Objective response rate was defined as the proportion of patients who had confirmed CR or PR, assessed by the investigator using RECIST v1.1.\nClinical benefit rate was defined as the proportion of patients with best overall response (BOR) of confirmed CR, PR, or SD lasting ≥16 weeks.\nTumor imaging were performed within 21 days prior to the first study treatment. Results of standard of care tests or examinations performed prior to obtaining informed consent and ≤21 days prior to the first administration of IMP may be used for the purposes of screening rather than repeating the standard of care tests. During the study, tumor imaging was performed approximately every 8 (±1) weeks in the first year and approximately every 12 (±1) weeks thereafter. Tumor assessments were required to be performed on schedule regardless of whether study treatment has been administered or held.\nTumor response was assessed by the investigators using RECIST v1.1. The same evaluator should perform assessments, if possible, to ensure internal consistency across visits.\nFor the analysis of ORR, DCR, and CBR, summary tables presenting the number and proportion of responders with the 2-sided exact (Clopper-Pearson) 95% CI for response rates were presented. Summary of each response category of the BOR (confirmed CR, confirmed PR, unconfirmed CR, unconfirmed PR, SD, or PD) were presented as well. Waterfall plots of maximum tumor shrinkage per patient were presented.\nTreatment emergent adverse events (TEAEs) were graded per NCI CTCAE v5.0. Tumor responses were assessed by investigators using RECIST v1.1."}, "Hygroscopicity": {"experiment": "Hygroscopicity", "assay_type": "physicochemical", "details": "solid form, Form I"}}, "note": "“Also recorded” adds a separate entry of the source."}
{"smiles": "O=C1CCc2c(Oc3ccc4c(c3)[C@H]3[C@H](NC(=O)Nc5cc(F)c(F)cc5F)[C@H]3O4)ccnc2N1", "note": "[Compound A, 1-((1S,1aS,6bS)-5-((7-oxo-5,6,7,8-tetrahydro-1,8-naphthyridin-4-yl)oxy)-1a,6b-dihydro-1H-cyclopropa[b]benzofuran-1-yl)-3-(2,4,5-trifluorophenyl)urea]", "values": [{"measurement": "Permeability", "setting": "Permeability; class in words", "result": "High"}, {"measurement": "Papp", "setting": "Permeability; not told", "result": "> 10", "unit": "×10⁻⁶ cm/s"}, {"measurement": "Potency against RAF monomer & dimer", "setting": "[1]; monomer versus dimer", "result": "equal potency"}, {"measurement": "Inhibitory activity against RAF kinases", "setting": "[1]; preclinical", "result": "potent inhibitory activity; also recorded: highly potent"}, {"measurement": "Solubility", "setting": "[2]; in dimethyl sulfoxide (DMSO) and dimethylacetamide (DMA)", "result": "high solubility"}, {"measurement": "Solubility", "setting": "[2]; in water", "result": "Low solubility"}, {"measurement": "clinical benefit rate", "setting": "[3]; 33 efficacy evaluable patients", "result": 42, "unit": "%"}, {"measurement": "disease control rate", "setting": "[3]; 33 efficacy evaluable patients", "result": 79, "unit": "%"}, {"measurement": "objective response rate", "setting": "[3]; 33 efficacy evaluable patients", "result": 18, "unit": "%"}, {"measurement": "Objective responders", "setting": "[3]; BRAF K601E/PIK3CA endometrial cancer", "result": 1}, {"measurement": "Objective responders", "setting": "[3]; BRAF V600E LGSOC", "result": 1}, {"measurement": "Objective responders", "setting": "[3]; BRAF V600E cholangiocarcinoma", "result": 1}, {"measurement": "Objective responders", "setting": "[3]; BRAF V600E melanoma pts who progressed on prior BRAF/MEK and checkpoint inhibitors (1 CR, 1 PR)", "result": 2}, {"measurement": "Patients evaluable for tumor response with PR at Week 8", "setting": "[3]; Cohort 5 (40 mg QD)", "result": 2, "unit": "patients"}, {"measurement": "CRC patients with stable disease", "setting": "[3]; FIG. 1, 2/2 CRC patients", "result": 100, "unit": "%"}, {"measurement": "responders that have melanoma", "setting": "[3]; FIG. 1, 4/5 responders", "result": 80, "unit": "%"}, {"measurement": "overall response rate", "setting": "[3]; FIG. 1, 5/22 evaluable patients", "result": 22.7, "unit": "%"}, {"measurement": "melanoma patients with stable disease, partial responses, or complete responses", "setting": "[3]; FIG. 1, 7/7 melanoma patients", "result": 100, "unit": "%"}, {"measurement": "melanoma patients with partial responses", "setting": "[3]; FIG. 1, of 7 melanoma patients", "result": 3}, {"measurement": "melanoma patients with stable disease", "setting": "[3]; FIG. 1, of 7 melanoma patients", "result": 3}, {"measurement": "melanoma patients with complete responses", "setting": "[3]; FIG. 1, of 7 melanoma patients, 1 CT readout", "result": 1}, {"measurement": "Objective responders", "setting": "[3]; KRAS G12D appendiceal cancer", "result": 1}, {"measurement": "Objective responders", "setting": "[3]; NRAS G12S melanoma", "result": 1}, {"measurement": "Objective responders", "setting": "[3]; NRAS Q61K melanoma", "result": 1}, {"measurement": "confirmed responses", "setting": "[3]; in 33 efficacy evaluable patients", "result": 6}, {"measurement": "complete response", "setting": "[3]; number of patients, 33 efficacy evaluable", "result": "one"}, {"measurement": "CR", "setting": "[3]; number of pts, 42 pts", "result": 1}, {"measurement": "SD≥24 weeks", "setting": "[3]; number of pts, 42 pts", "result": 8}, {"measurement": "cPR", "setting": "[3]; number of pts, 42 pts", "result": 5}, {"measurement": "uPR", "setting": "[3]; number of pts, 42 pts", "result": 2}, {"measurement": "Antitumor activity", "setting": "[3]; pts with no approved targeted therapy options / heavily pretreated patients", "result": "Antitumor activity was observed; also recorded: encouraging anti-tumor activity was observed"}, {"measurement": "Hygroscopicity", "setting": "Hygroscopicity", "result": "Hygroscopic"}]}
